{"source": "paper PMC9942120", "about": "(iScience, 2023)", "key": {"[1]": {"biological_target": "RPE (Homo sapiens, UniProt Q96AT9)", "sequence (Q96AT9 2-228)": "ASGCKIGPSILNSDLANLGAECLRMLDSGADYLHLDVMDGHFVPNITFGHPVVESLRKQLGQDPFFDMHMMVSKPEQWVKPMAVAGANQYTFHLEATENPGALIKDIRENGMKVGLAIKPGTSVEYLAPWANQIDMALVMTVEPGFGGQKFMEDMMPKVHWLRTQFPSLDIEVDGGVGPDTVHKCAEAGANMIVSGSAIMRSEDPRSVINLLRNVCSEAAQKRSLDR", "experiment": "direct LC-MS/MS profiling of modified tryptic peptides", "type": "cell-based", "conditions": "covalent at Cys5; H358 cells, […] AMG510, […] h (methods print […] h)"}, "[2]": {"biological_target": "HSPD1 (Homo sapiens, UniProt P10809)", "sequence (P10809 27-573)": "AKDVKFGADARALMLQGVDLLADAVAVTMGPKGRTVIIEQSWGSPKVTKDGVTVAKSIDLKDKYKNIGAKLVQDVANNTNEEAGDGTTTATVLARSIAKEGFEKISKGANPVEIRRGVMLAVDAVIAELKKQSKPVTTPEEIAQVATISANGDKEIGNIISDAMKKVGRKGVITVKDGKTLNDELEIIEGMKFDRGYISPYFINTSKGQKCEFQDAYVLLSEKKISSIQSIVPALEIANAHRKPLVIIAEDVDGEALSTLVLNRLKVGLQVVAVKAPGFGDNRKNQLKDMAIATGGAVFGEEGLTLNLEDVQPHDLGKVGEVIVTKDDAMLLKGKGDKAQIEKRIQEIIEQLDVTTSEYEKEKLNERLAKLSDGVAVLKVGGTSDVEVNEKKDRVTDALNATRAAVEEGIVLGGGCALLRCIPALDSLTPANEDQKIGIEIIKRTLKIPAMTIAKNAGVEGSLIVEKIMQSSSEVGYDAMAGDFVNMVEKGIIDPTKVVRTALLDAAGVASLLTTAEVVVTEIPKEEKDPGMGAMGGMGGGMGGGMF", "experiment": "direct LC-MS/MS profiling of modified tryptic peptides", "type": "cell-based", "conditions": "covalent at Cys237; H358 cells, […] AMG510, […] h (methods print […] h)"}, "[3]": {"biological_target": "PCBP1 (Homo sapiens, UniProt Q15365)", "sequence (Q15365 whole entry)": "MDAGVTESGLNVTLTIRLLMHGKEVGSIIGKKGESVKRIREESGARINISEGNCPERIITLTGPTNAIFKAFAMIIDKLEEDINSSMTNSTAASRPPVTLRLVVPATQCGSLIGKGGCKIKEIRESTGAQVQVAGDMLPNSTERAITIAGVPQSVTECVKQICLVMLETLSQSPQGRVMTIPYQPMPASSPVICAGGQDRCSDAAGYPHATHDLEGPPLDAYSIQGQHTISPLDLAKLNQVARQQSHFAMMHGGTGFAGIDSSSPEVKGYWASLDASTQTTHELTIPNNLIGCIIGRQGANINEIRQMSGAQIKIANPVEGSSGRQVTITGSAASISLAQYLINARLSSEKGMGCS", "experiment": "direct LC-MS/MS profiling of modified tryptic peptides", "type": "cell-based", "conditions": "covalent at Cys194; H358 cells, […] AMG510, […] h (methods print […] h)"}, "[4]": {"biological_target": "T1, HMOX2 (Homo sapiens, UniProt P30519)", "T1 sequence (P30519 2-316)": "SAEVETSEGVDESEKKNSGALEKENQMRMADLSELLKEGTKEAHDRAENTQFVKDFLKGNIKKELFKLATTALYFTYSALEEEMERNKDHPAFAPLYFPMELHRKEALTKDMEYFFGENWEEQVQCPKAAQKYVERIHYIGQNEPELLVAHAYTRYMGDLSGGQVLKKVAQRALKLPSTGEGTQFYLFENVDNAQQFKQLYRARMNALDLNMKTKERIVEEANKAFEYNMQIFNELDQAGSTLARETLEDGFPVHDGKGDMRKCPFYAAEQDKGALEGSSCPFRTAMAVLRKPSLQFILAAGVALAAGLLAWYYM", "experiment": "direct LC-MS/MS profiling of modified tryptic peptides", "type": "cell-based", "conditions": "covalent at Cys282; H358 cells, […] AMG510, […] h (methods print […] h)"}, "[5]": {"biological_target": "T2, SPTLC2 (Homo sapiens, UniProt O15270)", "T2 sequence (O15270 1-562)": "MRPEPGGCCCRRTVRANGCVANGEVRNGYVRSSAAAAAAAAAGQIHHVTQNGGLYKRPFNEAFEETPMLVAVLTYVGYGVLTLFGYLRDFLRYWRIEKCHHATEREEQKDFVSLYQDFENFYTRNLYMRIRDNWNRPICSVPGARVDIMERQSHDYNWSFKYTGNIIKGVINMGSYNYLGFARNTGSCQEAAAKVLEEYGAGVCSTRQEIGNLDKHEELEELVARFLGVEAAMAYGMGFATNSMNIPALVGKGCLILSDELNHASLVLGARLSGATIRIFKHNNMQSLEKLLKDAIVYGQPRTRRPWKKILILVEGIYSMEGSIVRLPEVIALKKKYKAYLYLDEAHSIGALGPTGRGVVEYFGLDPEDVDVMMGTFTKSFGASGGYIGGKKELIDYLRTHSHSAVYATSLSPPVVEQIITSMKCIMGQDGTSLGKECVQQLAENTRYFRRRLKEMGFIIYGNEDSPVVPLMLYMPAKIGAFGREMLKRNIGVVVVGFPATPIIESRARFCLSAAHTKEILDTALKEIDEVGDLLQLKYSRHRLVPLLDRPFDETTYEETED", "experiment": "direct LC-MS/MS profiling of modified tryptic peptides", "type": "cell-based", "conditions": "covalent at Cys99; H358 cells, […] AMG510, […] h (methods print […] h)"}, "[6]": {"biological_target": "T3, ALDOA (Homo sapiens, UniProt P04075)", "T3 sequence (P04075 2-364)": "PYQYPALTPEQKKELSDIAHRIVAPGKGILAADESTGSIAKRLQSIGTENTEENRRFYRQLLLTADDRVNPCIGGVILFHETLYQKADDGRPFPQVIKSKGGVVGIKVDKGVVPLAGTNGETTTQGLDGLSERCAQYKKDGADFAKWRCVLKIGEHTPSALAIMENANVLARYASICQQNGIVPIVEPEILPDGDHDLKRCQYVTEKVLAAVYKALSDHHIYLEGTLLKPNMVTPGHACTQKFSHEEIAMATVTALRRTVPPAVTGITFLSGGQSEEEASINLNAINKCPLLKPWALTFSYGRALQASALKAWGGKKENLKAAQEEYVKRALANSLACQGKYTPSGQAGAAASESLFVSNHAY", "experiment": "colorimetric aldolase activity kit", "type": "cell-based", "conditions": "covalent; […] AMG510 or vehicle, […] min"}, "[7]": {"biological_target": "T4, TK1 (Homo sapiens, UniProt P04183)", "T4 sequence (P04183 2-234)": "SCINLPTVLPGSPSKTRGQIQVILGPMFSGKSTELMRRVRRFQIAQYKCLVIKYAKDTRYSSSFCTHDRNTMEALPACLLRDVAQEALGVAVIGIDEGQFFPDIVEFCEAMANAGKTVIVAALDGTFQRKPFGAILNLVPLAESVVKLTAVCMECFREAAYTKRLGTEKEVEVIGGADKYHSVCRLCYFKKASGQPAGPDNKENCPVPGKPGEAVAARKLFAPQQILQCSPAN", "experiment": "direct LC-MS/MS profiling of modified tryptic peptides", "type": "cell-based", "conditions": "covalent at Cys3; H358 cells, […] AMG510, […] h (methods print […] h)"}, "[8]": {"biological_target": "T5, PLOD3 (Homo sapiens, UniProt O60568)", "T5 sequence (O60568 25-738)": "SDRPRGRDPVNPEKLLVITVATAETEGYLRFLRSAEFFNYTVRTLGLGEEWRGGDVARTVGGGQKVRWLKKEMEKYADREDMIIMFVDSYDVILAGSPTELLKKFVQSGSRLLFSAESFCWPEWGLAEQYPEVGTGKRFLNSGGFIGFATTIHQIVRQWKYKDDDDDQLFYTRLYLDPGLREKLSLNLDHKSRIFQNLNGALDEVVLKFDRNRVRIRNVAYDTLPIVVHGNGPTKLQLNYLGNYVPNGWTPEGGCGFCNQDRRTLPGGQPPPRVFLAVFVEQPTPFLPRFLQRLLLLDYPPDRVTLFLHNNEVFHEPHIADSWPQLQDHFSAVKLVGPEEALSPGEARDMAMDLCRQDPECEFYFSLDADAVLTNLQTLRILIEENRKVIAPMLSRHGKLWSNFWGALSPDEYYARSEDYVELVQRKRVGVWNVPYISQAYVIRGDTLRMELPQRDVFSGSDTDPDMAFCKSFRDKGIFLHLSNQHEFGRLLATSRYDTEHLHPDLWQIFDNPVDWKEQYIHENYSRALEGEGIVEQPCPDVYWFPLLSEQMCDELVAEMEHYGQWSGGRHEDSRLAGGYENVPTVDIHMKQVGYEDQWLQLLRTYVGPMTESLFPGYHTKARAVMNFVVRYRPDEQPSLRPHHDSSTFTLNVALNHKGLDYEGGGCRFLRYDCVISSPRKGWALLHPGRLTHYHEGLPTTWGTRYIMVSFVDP", "experiment": "direct LC-MS/MS profiling of modified tryptic peptides", "type": "cell-based", "conditions": "covalent at Cys691; H358 cells, […] AMG510, […] h (methods print […] h)"}, "[9]": {"biological_target": "T3, ALDOA", "experiment": "LC-MS/MS site mapping", "type": "cell-based", "conditions": "covalent at Cys339; H358 cells treated with AMG510"}, "[10]": {"biological_target": "Ank2; ANK2 (Mus musculus, UniProt Q8C8R3)", "sequence (Q8C8R3 whole entry)": "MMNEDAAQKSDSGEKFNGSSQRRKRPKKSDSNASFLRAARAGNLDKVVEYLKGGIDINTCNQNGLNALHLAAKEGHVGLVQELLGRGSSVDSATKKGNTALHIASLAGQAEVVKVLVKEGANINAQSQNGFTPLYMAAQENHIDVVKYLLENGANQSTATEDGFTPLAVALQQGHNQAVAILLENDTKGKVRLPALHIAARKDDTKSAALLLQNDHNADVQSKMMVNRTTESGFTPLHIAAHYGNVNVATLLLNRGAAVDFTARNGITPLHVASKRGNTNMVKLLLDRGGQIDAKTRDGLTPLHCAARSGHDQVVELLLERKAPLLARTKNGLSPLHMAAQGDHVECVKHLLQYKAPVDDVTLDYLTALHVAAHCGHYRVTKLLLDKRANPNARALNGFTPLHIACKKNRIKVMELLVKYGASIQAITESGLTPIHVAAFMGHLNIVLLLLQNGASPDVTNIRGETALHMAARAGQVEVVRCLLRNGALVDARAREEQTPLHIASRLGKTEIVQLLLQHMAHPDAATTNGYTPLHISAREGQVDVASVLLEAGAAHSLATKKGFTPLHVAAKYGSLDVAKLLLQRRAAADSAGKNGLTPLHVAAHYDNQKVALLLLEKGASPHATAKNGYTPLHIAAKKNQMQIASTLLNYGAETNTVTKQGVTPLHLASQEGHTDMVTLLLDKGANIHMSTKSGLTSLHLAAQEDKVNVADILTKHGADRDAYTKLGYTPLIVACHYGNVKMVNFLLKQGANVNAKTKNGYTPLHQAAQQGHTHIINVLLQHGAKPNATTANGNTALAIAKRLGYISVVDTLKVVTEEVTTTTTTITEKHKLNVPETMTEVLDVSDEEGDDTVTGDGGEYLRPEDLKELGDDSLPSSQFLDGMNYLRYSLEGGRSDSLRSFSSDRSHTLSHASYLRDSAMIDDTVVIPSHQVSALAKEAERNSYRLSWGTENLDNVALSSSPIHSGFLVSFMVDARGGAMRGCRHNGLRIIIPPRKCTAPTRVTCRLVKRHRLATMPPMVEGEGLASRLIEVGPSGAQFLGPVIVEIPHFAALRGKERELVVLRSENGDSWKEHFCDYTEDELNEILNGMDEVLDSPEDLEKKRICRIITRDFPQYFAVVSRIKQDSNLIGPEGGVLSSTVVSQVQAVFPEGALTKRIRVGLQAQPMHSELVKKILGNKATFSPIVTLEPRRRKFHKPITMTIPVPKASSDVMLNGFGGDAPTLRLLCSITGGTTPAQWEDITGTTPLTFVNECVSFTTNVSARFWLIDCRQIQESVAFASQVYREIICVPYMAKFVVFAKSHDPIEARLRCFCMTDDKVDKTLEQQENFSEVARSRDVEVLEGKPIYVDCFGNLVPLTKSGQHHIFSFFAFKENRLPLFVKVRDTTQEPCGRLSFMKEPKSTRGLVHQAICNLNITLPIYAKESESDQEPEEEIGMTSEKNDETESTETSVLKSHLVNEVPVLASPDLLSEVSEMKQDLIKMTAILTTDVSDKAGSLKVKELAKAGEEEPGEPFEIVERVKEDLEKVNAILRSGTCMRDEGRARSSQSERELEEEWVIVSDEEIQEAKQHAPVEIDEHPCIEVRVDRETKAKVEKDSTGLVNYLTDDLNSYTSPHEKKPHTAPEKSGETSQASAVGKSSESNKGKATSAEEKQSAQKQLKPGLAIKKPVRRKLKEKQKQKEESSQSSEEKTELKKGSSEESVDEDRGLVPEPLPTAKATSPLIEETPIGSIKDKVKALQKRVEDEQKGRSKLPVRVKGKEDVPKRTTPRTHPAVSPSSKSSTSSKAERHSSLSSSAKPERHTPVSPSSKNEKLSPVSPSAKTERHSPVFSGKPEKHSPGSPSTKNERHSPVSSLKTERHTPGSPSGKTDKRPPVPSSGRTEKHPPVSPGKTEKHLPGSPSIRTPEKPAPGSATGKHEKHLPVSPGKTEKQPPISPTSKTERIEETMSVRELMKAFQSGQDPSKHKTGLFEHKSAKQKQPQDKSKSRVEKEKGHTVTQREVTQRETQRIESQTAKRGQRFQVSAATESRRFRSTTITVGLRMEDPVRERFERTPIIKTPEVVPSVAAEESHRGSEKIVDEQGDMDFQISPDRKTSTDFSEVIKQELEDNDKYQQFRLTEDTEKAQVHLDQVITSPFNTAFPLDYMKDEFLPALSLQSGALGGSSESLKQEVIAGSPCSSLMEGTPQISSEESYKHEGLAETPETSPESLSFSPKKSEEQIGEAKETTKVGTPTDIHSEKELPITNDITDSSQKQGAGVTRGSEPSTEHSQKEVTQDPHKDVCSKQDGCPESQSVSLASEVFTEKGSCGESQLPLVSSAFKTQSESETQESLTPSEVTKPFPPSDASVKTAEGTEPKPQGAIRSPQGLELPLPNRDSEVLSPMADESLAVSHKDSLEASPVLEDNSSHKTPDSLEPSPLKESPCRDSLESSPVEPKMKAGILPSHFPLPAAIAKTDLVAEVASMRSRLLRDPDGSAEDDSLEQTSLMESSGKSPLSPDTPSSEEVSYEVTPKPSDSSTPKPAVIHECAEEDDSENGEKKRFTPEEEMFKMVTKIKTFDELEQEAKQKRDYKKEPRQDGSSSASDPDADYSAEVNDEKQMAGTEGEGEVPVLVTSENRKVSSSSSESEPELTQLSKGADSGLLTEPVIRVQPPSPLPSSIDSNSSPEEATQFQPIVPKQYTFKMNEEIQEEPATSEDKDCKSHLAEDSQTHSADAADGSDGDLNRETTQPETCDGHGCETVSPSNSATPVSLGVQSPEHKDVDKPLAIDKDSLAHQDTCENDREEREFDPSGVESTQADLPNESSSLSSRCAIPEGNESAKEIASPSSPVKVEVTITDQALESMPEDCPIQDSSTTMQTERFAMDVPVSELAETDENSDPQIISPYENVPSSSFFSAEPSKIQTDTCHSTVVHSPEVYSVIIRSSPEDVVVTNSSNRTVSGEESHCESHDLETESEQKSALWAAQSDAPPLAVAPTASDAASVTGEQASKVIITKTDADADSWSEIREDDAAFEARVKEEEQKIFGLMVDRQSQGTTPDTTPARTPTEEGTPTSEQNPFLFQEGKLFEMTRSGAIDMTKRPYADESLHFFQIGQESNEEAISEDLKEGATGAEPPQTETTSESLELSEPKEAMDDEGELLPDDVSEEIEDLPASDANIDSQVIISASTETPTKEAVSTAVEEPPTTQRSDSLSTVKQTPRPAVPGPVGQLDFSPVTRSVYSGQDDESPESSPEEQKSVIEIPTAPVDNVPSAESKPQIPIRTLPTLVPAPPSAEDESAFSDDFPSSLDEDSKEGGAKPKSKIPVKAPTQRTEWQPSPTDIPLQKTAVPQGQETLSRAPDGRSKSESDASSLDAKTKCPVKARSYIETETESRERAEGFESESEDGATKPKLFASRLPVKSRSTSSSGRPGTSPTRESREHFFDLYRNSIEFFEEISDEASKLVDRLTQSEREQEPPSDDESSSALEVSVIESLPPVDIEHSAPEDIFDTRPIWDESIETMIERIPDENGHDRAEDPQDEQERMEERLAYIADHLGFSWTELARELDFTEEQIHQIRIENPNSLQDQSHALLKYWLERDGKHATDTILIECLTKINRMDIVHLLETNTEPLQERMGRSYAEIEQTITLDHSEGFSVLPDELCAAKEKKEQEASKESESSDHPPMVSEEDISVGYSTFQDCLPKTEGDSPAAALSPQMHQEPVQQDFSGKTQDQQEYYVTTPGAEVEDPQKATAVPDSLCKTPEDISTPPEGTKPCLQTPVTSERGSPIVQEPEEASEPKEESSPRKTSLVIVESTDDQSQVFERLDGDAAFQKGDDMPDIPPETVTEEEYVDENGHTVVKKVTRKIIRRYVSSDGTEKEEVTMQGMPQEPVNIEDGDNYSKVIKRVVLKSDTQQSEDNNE", "experiment": "anti-AMG510 peptide IP and LC-MS/MS of heart tissue", "conditions": "covalent at Cys3737; mice dosed orally […] mg/kg/day for […] days"}}}
{"compound": "C=CC(=O)N1CCN(c2nc(=O)n(-c3c(C)ccnc3C(C)C)c3nc(-c4c(O)cccc4F)c(F)cc23)[C@@H](C)C1", "note": "[AMG510]", "values": [{"measurement": "direct LC-MS/MS profiling of modified tryptic peptides", "setting": "[1]", "result": "They included enzymes (PLOD3 C691, RPE C5, SPTLC2 C99, UBE2O C370, and TK1 C3)"}, {"measurement": "direct LC-MS/MS profiling of modified tryptic peptides", "setting": "[2]", "result": "protein folding accessory protein (HSPD1 C237)"}, {"measurement": "direct LC-MS/MS profiling of modified tryptic peptides", "setting": "[3]", "result": "tumor suppressor (PCBP1 C194)"}, {"measurement": "direct LC-MS/MS profiling of modified tryptic peptides", "setting": "[4]", "result": "off-targets that were identified in previous studies (RTN4 C1101 and HMOX2 C282)"}, {"measurement": "direct LC-MS/MS profiling of modified tryptic peptides", "setting": "[5]", "result": "They included enzymes (PLOD3 C691, RPE C5, SPTLC2 C99, UBE2O C370, and TK1 C3)"}, {"measurement": "aldolase activity", "setting": "[6]", "result": "The ALDOA enzyme activity assay showed that the activity was indeed inhibited by the AMG510"}, {"measurement": "direct LC-MS/MS profiling of modified tryptic peptides", "setting": "[7]", "result": "They included enzymes (PLOD3 C691, RPE C5, SPTLC2 C99, UBE2O C370, and TK1 C3)"}, {"measurement": "direct LC-MS/MS profiling of modified tryptic peptides", "setting": "[8]", "result": "They included enzymes (PLOD3 C691, RPE C5, SPTLC2 C99, UBE2O C370, and TK1 C3)"}, {"measurement": "LC-MS/MS site mapping", "setting": "[9]", "result": "We first confirmed that Cys339 was also endogenously modified by AMG510 in H358 cells"}, {"measurement": "anti-AMG510 peptide IP and LC-MS/MS of heart tissue", "setting": "[10]", "result": "Ank2 was modified by AMG510 at Cys3737 in the mouse heart tissue"}]}
